Data taken from the supplement of paper PMC10307832.

Columns and labels:
Experiment in all cases: relative viability (nuclei count vs DMSO), 5 days (fraction); higher = more cells survive
Sulindac + Bortezomib = compound: CC1=C(CC(=O)O)c2cc(F)ccc2/C1=C\c1ccc([S+](C)[O-])cc1 [Sulindac] + CC(C)C[C@H](NC(=O)[C@H](Cc1ccccc1)NC(=O)c1cnccn1)B(O)O [Bortezomib] (partner 0.002 µM)
In short: (§1)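 Lung cancer cell lines in 1536-well plates got either a single drug or a fixed anchor-drug dose together with five library-drug doses (not always all listed) in √10 steps, by pin tool, on the day after seeding. Nuclei were counted after 5 days, and relative viability is the treated-to-vehicle ratio of nuclei counts. Values are medians of duplicate plates.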

[1] = compound: CN[C@@H]1C[C@H]2O[C@@](C)([C@@H]1OC)n1c3ccccc3c3c4c(c5c6ccccc6n2c5c31)C(=O)NC4 [Staurosporine] + C[C@]1(O)C[C@@H](c2nc(-c3ccc4ccc(-c5ccccc5)nc4c3)c3c(N)nccn32)C1 [Linsitinib] (partner 1 µM)
In short: as §1

5-Fluorouracil + OSI-027 = compound: O=c1[nH]cc(F)c(=O)[nH]1 [5-Fluorouracil] + COc1cccc2cc(-c3nc([C@H]4CC[C@H](C(=O)O)CC4)n4ncnc(N)c34)[nH]c12 [OSI-027] (partner 0.5 µM)
In short: as §1

Sulindac + Palbociclib = compound: CC1=C(CC(=O)O)c2cc(F)ccc2/C1=C\c1ccc([S+](C)[O-])cc1 [Sulindac] + CC(=O)c1c(C)c2cnc(Nc3ccc(N4CCNCC4)cn3)nc2n(C2CCCC2)c1=O [Palbociclib] (partner 0.5 µM)
In short: as §1

Row | Cell Line | relative viability (Sulindac + Bortezomib; first compound 0.08 µM) | relative viability (Sulindac + Bortezomib; first compound 0.253 µM) | relative viability (Sulindac + Bortezomib; first compound 0.8 µM) | relative viability (Sulindac + Bortezomib; first compound 2.53 µM) | relative viability (Sulindac + Bortezomib; first compound 8 µM) | relative viability ([1]; first compound 0.005 µM) | relative viability ([1]; first compound 0.01581 µM) | relative viability ([1]; first compound 0.05 µM) | relative viability ([1]; first compound 0.1581 µM) | relative viability ([1]; first compound 0.5 µM) | relative viability (5-Fluorouracil + OSI-027; first compound 0.02 µM) | relative viability (5-Fluorouracil + OSI-027; first compound 0.2 µM) | relative viability (5-Fluorouracil + OSI-027; first compound 0.6325 µM) | relative viability (5-Fluorouracil + OSI-027; first compound 2 µM) | relative viability (Sulindac + Palbociclib; first compound 0.08 µM) | relative viability (Sulindac + Palbociclib; first compound 0.253 µM) | relative viability (Sulindac + Palbociclib; first compound 0.8 µM) | relative viability (Sulindac + Palbociclib; first compound 2.53 µM) | relative viability (Sulindac + Palbociclib; first compound 8 µM)
1 | ABC-1 | 0.328 | 0.281 | 0.279 | 0.311 | 0.31 | 0.195 | 0.209 | 0.145 | 0.108 | 0.0957 | 0.453 | 0.518 | 0.53 | 0.261 | 0.73 | 0.946 | 0.514 | 0.475 | 0.639
2 | BEN | 0.829 | 0.889 | 0.714 | 0.748 | 0.947 | 1.23 | 0.923 | 0.436 | 0.52 | 0.245 | 0.303 | 0.312 | 0.315 | 0.326 | 0.415 | 0.495 | 0.506 | 0.483 | 0.503
3 | CAL-12T | 0.999 | 1.06 | 0.852 | 0.918 | 1.26 | 0.57 | 0.334 | 0.213 | 0.136 | 0.115 | 0.771 | 0.625 | 0.385 | 0.352 | 0.216 | 0.549 | 0.314 | 0.526 | 0.576
4 | COR-L23 | 1.17 | 1.14 | – | 1.2 | 1.23 | 0.534 | 0.27 | 0.134 | 0.0552 | 0.041 | 0.794 | 0.539 | 0.323 | 0.245 | 0.325 | 0.268 | 0.233 | 0.275 | 0.334
5 | COR-L 105 | 0.819 | 0.939 | 0.626 | 0.724 | 1.09 | 0.561 | 0.353 | 0.246 | 0.261 | 0.213 | 0.649 | 0.899 | 0.66 | 0.443 | 0.387 | 0.402 | 0.365 | 0.412 | 0.395
6 | EKVX | 1 | 0.999 | 0.859 | 1.04 | 1.05 | 0.624 | 0.357 | 0.22 | 0.183 | 0.109 | – | – | 0.148 | 0.134 | 0.396 | 0.35 | 0.31 | 0.339 | 0.465
7 | EMC-BAC-2 | 1.14 | 1.1 | 0.824 | 1.06 | 1.08 | 0.457 | 0.394 | 0.122 | 0.152 | 0.133 | 0.363 | 0.407 | 0.376 | 0.361 | 0.532 | 0.512 | 0.482 | 0.505 | 0.566
8 | EPLC-272H | 1.05 | – | 0.603 | 1.12 | 0.813 | 1.17 | 0.732 | 0.352 | 0.25 | 0.234 | 0.272 | 0.257 | 0.263 | 0.212 | 0.255 | – | 0.323 | 0.305 | 0.318
9 | H3255 | 0.714 | 0.684 | 0.735 | 0.891 | 0.916 | 0.814 | 0.549 | 0.303 | 0.226 | 0.116 | 0.609 | 0.686 | 0.699 | 0.574 | 0.288 | 0.32 | 0.391 | 0.311 | 0.326
10 | HARA | 1.2 | 1.09 | – | 1.14 | 1.44 | 0.762 | 0.192 | 0.155 | 0.0968 | 0.0872 | 0.475 | 0.737 | 0.559 | 0.308 | 0.294 | 0.3 | 0.3 | 0.256 | 0.227
11 | HCC-15 | 1.34 | 1.08 | 0.676 | 1.07 | 1.07 | 0.921 | – | 0.656 | 0.444 | 0.276 | 0.781 | 0.718 | 0.442 | 0.311 | 0.901 | 0.818 | 0.543 | 0.736 | 0.721
12 | HCC-44 | 0.89 | 0.882 | 0.853 | 0.904 | 0.966 | 0.328 | 0.194 | 0.101 | 0.111 | 0.0981 | 0.664 | 0.479 | 0.483 | 0.31 | 0.982 | 1.06 | 0.924 | 0.96 | 0.966
13 | HCC-78 | 0.432 | 0.534 | 0.379 | 0.607 | 0.532 | 0.613 | 0.457 | 0.363 | 0.295 | 0.268 | 0.618 | 0.369 | 0.335 | 0.306 | 0.481 | 0.48 | 0.501 | 0.444 | 0.442
14 | HCC-366 | 1.9 | 1.06 | 0.306 | 1 | 1.33 | 0.623 | – | 0.0843 | 0.0298 | 0.013 | 1.18 | 0.868 | 0.439 | 0.144 | 0.442 | 0.36 | – | 0.301 | 0.555
15 | HCC-827 | 1.01 | 1.13 | 0.93 | 1.06 | 1.11 | 0.992 | 0.853 | 0.726 | 0.769 | 0.624 | 0.767 | 0.832 | 0.681 | 0.391 | 0.496 | 0.552 | 0.48 | 0.547 | 0.465
16 | HOP-62 | 0.913 | 1.03 | 1.02 | 0.809 | 0.564 | 1.07 | 0.604 | 0.117 | 0.111 | 0.108 | 0.87 | 0.938 | 0.846 | 0.633 | 0.495 | 0.553 | 0.469 | 0.525 | 0.541
17 | LC-2-ad | 1.31 | 0.992 | 0.969 | 0.97 | 1.12 | 0.817 | 0.434 | 0.192 | 0.0865 | 0.0668 | 0.91 | 0.582 | 0.404 | 0.322 | 0.521 | 0.514 | 0.37 | 0.469 | 0.547
